Values after ≈ are worked out from the molar mass of the structure shown. Values joined by “and” are separate entries in the source; they are usually repeats but may differ in a detail not shown here. Equal values may be shown once.
How the values were obtained:
[1] = Determination of Compound 1 in mice brain by LC/MS/MS; format: in vivo; details: male CD-1 mice fed 1 mg/g in 0.5% methylcellulose, brain removed after 15 minute; individual brains 1-3
Protocol: The concentration of compound 1 in brain samples was analyzed by LC/MS/MS spectrometer. Experiments were performed on male CD-1 derived mice weighing 24±2 g (Biolasco Taiwan). The CD-1 mice were fed with 1 mg/g Compound 1 in 0.5% methylcellulose (concentration is 2 mg/mL). The brains of the CD-1 mice were removed after 15 minute and extracted with CH3CN and then centrifuged to prepare supernatant that was analyzed by LC/MS/MS.

U373MG = assay: MTT survival assay on U373MG cancer cells; format: cell-based; details: Homo sapiens, U373 MG, read-out: half maximal inhibitory concentration (IC50)
Text: (§1) MTT assay is commonly used to determine cell proliferation, percent of viable cells, and cytotoxicity. MTT (3-[4,5-dimethylthiazol-2-yl]2,5-diphenyltetrazolium bromide) is a yellow dye, which can be absorbed by the living cells and be reduced to purplish blue formazan crystals by succinate tetrazolium reductase in mitochondria. Formazan formation can therefore be used to assess and determine the survival rate of cells.
(§2) To each of the 96 well plates containing SK-N-MC, 0.003, 0.01, 0.03, 0.1, and 0.3 μg/ml of compound 1 were add. The 96 well plates were incubated at 37° C., 5% CO2 for 48 hours. Subsequently, in the dark environment to each well of the plates were added 2.5 mg/ml of MTT. The reaction was terminated by addition of 100 μl of lysis buffer after 4 hours. The survival rate of cells was calculated based on the measurement of absorption at the 570 nm wavelength by enzyme immunoassay analyzer. The half maximal inhibitory concentration (IC50) values of compound 1 on SK-N-MC was 0.05 μg/mL. Similarly, another exemplary cancer cell lines, U373MG, were used.

SK-N-MC cells = assay: MTT survival assay on SK-N-MC brain cancer cells; format: cell-based; details: Homo sapiens, 48 hours
Protocol: The NCI anti-cancer drug screen model was adopted to test anti-cancer effect of the exemplary compounds from Example 1. The isolated compound 1 from Example 1 was added into the culture media of brain-cancer cells, SK-N-MC, to test for tumor cell survival by MTT assay.
as §1
SK-N-MC cells were suspended and cultured in 10% fetal bovine serum (Life Technologies Inc.) culture medium containing 1% penicillin and 1% streptomycin. The cells were incubated under 5% CO2, 37° C. for 24 hours. After cell proliferation, the cells were washed once with PBS, treated with the trypsin-EDTA, and then centrifuged at 1,200 rpm for 5 minutes to separate cells from supernatant. The cells were re-suspended in fresh culture medium (10 mL) and placed in 96 well plates.
as §2

Brain concentration [1]: 30.13 µg/g and 7.59 µg/g and 24.28 µg/g
SMILES: COC1=C(OC)C(O)C(C/C=C(\C)CC/C=C(\C)CCC=C(C)C)C(C)C1=O (centres unmarked) [Compound 1, 4-hydroxy-2,3-dimethoxy-6-methyl-5-(3,7,11-trimethyldodeca-2,6,10-trienyl)cyclohex-2-enone]
IC50 (U373MG): 5.88 µg/mL (≈ 15.1 µM) | viability at 0.003 µg/mL (SK-N-MC cells; 0.003 μg/ml, read-out: Cell viability rate mean): 86.3% | viability at 0.01 µg/mL (SK-N-MC cells; 0.01 μg/ml, read-out: Cell viability rate mean): 76.6% | viability at 0.03 µg/mL (SK-N-MC cells; 0.03 μg/ml, read-out: Cell viability rate mean): 63.2% | viability at 0.1 µg/mL (SK-N-MC cells; 0.1 μg/ml, read-out: Cell viability rate mean): 32.9% | viability at 0.3 µg/mL (SK-N-MC cells; 0.3 μg/ml, read-out: Cell viability rate mean): 23% | IC50 (SK-N-MC cells; read-out: half maximal inhibitory concentration (IC50)): 0.05 µg/mL (≈ 0.128 µM)

From patent US20130158113A1, “METHODS AND COMPOSITIONS FOR TREATING BRAIN CANCER” (Golden Biotechnology Corporation, priority 2011, published 2013)
